We go through 1 compound from patent US20040266749A1, “Methods for cystic fibrosis disease assessment and methods for treating anaerobic P. aeruginosa biofilms in cystic fibrosis disease” (priority 2002, published 2004).

This experiment concerns P. aeruginosa rhlR mutant anaerobic biofilm. The experiment is described as follows: Anaerobic biofilm protection of rhlR mutant bacteria by carboxy-PTIO (confocal LIVE/DEAD viability). It is filed as cell-based, Pseudomonas aeruginosa. To be noted: 5 mM carboxy-PTIO. Here is the method:
(b) Confocal examination of biofilms. For biofilm architecture examination, circular coverslips are glued to the bottom of 35×10 mm polystyrene tissue culture dishes with small holes in the base (Falcon). The plates are sterilized overnight by UV irradiation. Three ml of aerobic L-broth, aerobic LBN or anaerobic LBN is inoculated with ˜10^7 CFU of overnight L-broth grown culture. After 24 hr at 37° C., biofilms are washed with saline and stained with 0.5 ml of a LIVE/DEAD BacLight bacterial viability stain (Molecular Probes, Inc., Eugene, Oreg.). Images are acquired on a Zeiss LSM 510 laser scanning confocal unit attached to an Axiovert microscope using a 63×1.4 NA oil immersion objective. For two color images, samples are scanned sequentially at 488 nm and 546 nm. Syto 9 (green fluorescence) is detected through a 505-530 nm bandpass filter and propidium iodine (red fluorescence) is detected through a 560 nm longpass filter and presented in two channels of a 512×512 pixel, 8-bit image.
(a) Anaerobic biofilm protection by 2-(4-Carboxyphenyl)-4,4,5,5-tetramethylimidazoline-1-oxyl-3-oxide (carboxy-PTIO). Biofilms of rhlR mutant bacteria are grown anaerobically in the presence vs. absence of 5 mM carboxy-PTIO (Molecular Probes, Eugene, Oreg.), an NO scavenger. […]

For `CC1(C)N([O])C(c2ccc(C(=O)O)cc2)=[N+]([O-])C1(C)C` [carboxy-PTIO, 2-(4-Carboxyphenyl)-4,4,5,5-tetramethylimidazoline-1-oxyl-3-oxide], where the note is “anaerobic rhlR mutant biofilm, sagittal sectioning, FIG. 3B line 2 vs. 1”, the “Biofilm zone in which protection is primarily observed (top of the biofilm)” value was 10-15 μm. Also, the “Protection of anaerobic rhlR mutant biofilm bacteria from cell death (viability)” value (rhlR mutant grown anaerobically as biofilm, FIG. 3A panels 2 vs. 1) is “protected the rhlR mutant”.
